The source of these data is paper PMC7445162, “De novo design of an intercellular signaling toolbox for multi-channel cell–cell communication and biological computation” (Nature Communications, 2020).

Structures are written as SMILES. Like-named read-outs stand apart in the source and are kept apart here.

As a reminder, the EC50 is the concentration giving half of the maximal effect. Read a low EC50 as greater potency.

Assay [1] concerns the target T1, LuxR (Aliivibrio fischeri, UniProt P12746).
T1 construct: expressed in E. coli DH5alpha receiver cells; GFP reporter under the Plux* promoter
T1 sequence (P12746 1-250): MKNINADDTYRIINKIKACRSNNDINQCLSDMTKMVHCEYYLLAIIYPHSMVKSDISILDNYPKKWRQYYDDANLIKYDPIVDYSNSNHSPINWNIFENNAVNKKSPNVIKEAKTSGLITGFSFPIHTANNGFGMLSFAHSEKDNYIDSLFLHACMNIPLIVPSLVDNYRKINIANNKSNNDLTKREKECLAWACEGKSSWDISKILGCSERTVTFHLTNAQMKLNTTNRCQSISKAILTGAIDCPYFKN
The experiment in a line: cell-based. The settings on record: synthetic pure signal, replicate. More on the design: species or system Escherichia coli DH5alpha; E. coli receiver cells, GFP reporter under aTF-responsive promoter, flow cytometry, dose-response with pure synthetic signal molecules. The source says:
(§1) IV-HSL was chemically synthesized (Supplementary Fig. 21).

Assay [2] deals with T1, LuxR. In words: GFP reporter dose-response in E. coli, flow cytometry. The class given is cell-based, Escherichia coli. The note with it: chemically pure signal molecule; M9 medium, 37 °C, 12 h; transcriptional reporter. In general terms: A flow cytometer gives signals particle by particle.
Assay [3] deals with T2, PhlF (Pseudomonas protegens, UniProt Q4K422).
T2 construct: expressed in E. coli DH5alpha receiver cells; PphlF-sfGFP reporter
T2 sequence (Q4K422 1-200): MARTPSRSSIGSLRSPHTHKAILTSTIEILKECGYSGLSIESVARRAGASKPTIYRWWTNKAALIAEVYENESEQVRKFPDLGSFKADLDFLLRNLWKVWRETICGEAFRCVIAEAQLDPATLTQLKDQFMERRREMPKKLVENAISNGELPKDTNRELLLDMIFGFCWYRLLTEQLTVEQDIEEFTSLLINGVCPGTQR
The experiment in a line: cell-based. The note with it: synthetic pure signal, replicate. Also noted: species or system Escherichia coli DH5alpha; E. coli receiver cells, GFP reporter under aTF-responsive promoter, flow cytometry, dose-response with pure synthetic signal molecules.
Description: as §1

For assay [4], the target named is T3, FdeR (Herbaspirillum seropedicae, UniProt D8J0W4).
T3 construct: gene nodD; expressed in E. coli DH5alpha receiver cells; GFP reporter under the cognate promoter
T3 sequence (D8J0W4 1-309): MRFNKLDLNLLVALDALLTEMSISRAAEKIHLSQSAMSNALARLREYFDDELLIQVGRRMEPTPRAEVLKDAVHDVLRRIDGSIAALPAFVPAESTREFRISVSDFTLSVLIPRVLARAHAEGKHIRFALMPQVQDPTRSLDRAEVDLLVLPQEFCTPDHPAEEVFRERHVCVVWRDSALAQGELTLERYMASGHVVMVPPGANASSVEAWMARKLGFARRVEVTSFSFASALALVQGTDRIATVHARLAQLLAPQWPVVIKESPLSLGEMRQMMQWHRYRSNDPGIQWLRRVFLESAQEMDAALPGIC
In words: cell-based. More on the design: species or system Escherichia coli DH5alpha; E. coli receiver cells, GFP reporter under aTF-responsive promoter, flow cytometry, dose-response with pure synthetic signal molecules. The note with it: synthetic pure signal, replicate.
Description: as §1

Assay [5] deals with T3, FdeR. In words: GFP reporter dose-response in E. coli, flow cytometry. It is filed as cell-based, Escherichia coli.

Consider `CCCC(=O)CC(=O)N[C@H]1CCOC1=O` [3OC6, 3-oxo-C6-HSL], for which the EC50 was found to be 10.8 nM in assay [1] (Synthetic [column B]), 32.9 nM in assay [1] (Synthetic [column C]), 14.8 nM in assay [1] (Synthetic [column D]) and 20 nM in assay [2].

Turning to `CC(=O)c1c(O)cc(O)c(C(C)=O)c1O` [DAPG, 2,4-diacetylphloroglucinol], the EC50 in assay [3] (Synthetic [column B]) worked out at 18.2 µM; in assay [3] (Synthetic [column C]) it was 17.7 µM; in assay [3] (Synthetic [column D]), 16.3 µM.

In the case of `O=C1C[C@@H](c2ccc(O)cc2)Oc2cc(O)cc(O)c21` [NG, naringenin], the EC50 in assay [4] (Synthetic [column B]) was 12.1 µM; in assay [4] (Synthetic [column C]) it was 93.8 µM; in assay [4] (Synthetic [column D]), 47.3 µM; in assay [5], 51 µM.
